Measurements taken from patent US11053226B2, “KRAS G12C inhibitors and methods of using the same” (Amgen Inc., priority 2018, dated 2021).
Like-named read-outs stand apart in the source and are kept apart here.

Assays:
[1] = system: Phosphorylation of ERK1/2 in A549 cells; assay: Phospho-ERK1/2 MSD Assay (A549); type: cell-based; conditions: Homo sapiens, A549, 4 h, read-out: pERK IC50 (4 h, A549), 4 h compound treatment
[2] = molecular target: GDP-bound KRAS protein (aa 1-169), containing both G12C and C118A amino acid substitutions (Homo sapiens (Human), UniProt P01116, C118A/G12C); assay: Coupled Nucleotide Exchange Assay; type: biochemical; conditions: read-out: Coupled Exchange IC50
Experimental: For compounds in Table 9, the following assay conditions were employed:
Coupled Nucleotide Exchange Assay:
The assay plates were then read on a PerkinElmer EnVision Multilabel Reader, using AlphaScreen® technology, and data were analyzed using a 4-parameter logistic model to calculate IC50 values.

[3] = third Coupled Exchange column, compound pre-incubation probably 20 hours (rest of head not shown; b435 lists 5 min, 2 hours or 20 hours)
[4] = first Coupled Exchange column, compound pre-incubation probably 5 min (rest of head not shown; b435 lists 5 min, 2 hours or 20 hours)

GDP-bound KRAS protein (aa 1-169), containing both G12C and C118A amino acid substitutions, sequence (P01116 other isoform, or with tags, fused parts or gaps G12C/C118A): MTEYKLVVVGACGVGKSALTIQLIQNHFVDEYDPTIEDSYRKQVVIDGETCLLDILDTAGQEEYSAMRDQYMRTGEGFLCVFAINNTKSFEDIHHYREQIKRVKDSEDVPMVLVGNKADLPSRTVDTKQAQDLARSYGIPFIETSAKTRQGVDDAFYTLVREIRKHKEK

Row | Structure (SMILES) | IC50 [2, 3] [µM] | IC50 [2, 4] [µM] | also measured
1 | C=CC(=O)N1CC(NC(=O)Cn2c(C3CC3)c(C(=O)N3CCc4c(cccc4OC)C3)c3cc(Cl)cc(C)c32)C1 [Example 1-7, 2-(5-Chloro-2-cyclopropyl-3-((5-methoxy-3,4-dihydro-2(1H)-isoquinolinyl)carbonyl)-7-methyl-1H-indol-1-yl)-N-(1-(2-propenoyl)-3-azetidinyl)acetamide] | – | – | IC50 [1]: 60.4 µM
2 | C=CC(=O)N1CC(NC(=O)Cn2c(C)c(C(=O)N3CCc4c(cccc4OC)C3)c3cc(Cl)cc(C)c32)C1 [Example 3-1, 2-(5-Chloro-3-((5-methoxy-3,4-dihydro-2(1H)-isoquinolinyl)carbonyl)-2,7-dimethyl-1H-indol-1-yl)-N-(1-(2-propenoyl)-3-azetidinyl)acetamide] | – | – | IC50 [1]: > 100 µM
3 | C=CC(=O)N1CC(NC(=O)Cn2c(C)c(C(=O)N3CCN(c4ccc(C)cn4)CC3)c3cc(Cl)cc(C)c32)C1 [Example 24] | – | – | IC50 [1]: > 100 µM
4 | C=CC(=O)N1CC(NC(=O)Cn2c(C)c(C(=O)N3CCc4c(cccc4OC)C3)c3cc(Br)ccc32)C1C (stereo not shown) [Example 44] | – | – | IC50 [1]: > 100 µM
5 | C=CC(=O)N1CC(NC(=O)Cn2cc(C(=O)N3CCN(c4ccccn4)CC3)c3cc(Br)ccc32)C1 [Example 60] | – | – | IC50 [1]: > 100 µM
6 | C=CC(=O)N1CC(NC(=O)Cn2cc(C(=O)N3CCc4c(cccc4OC)C3)c3cc(Br)cc(C)c32)C1 [Example 82] | – | – | IC50 [1]: > 100 µM
7 | C=CC(=O)N1CC(NC(=O)Cn2cc(C(=O)N3CCc4c(Cl)cccc4C3)c3cc(Br)ccc32)C1 [Example 109] | – | – | IC50 [1]: 21.3 µM
8 | C=CC(=O)N1CC(NC(=O)Cn2cc(C(=O)N3CCc4cc(F)ccc4C3)c3cc(Br)ccc32)C1 [Example 114] | – | – | IC50 [1]: > 100 µM
9 | C=CC(=O)N1CC(NC(=O)Cn2c(C)c(-c3cccnc3Br)c3cc(Cl)ccc32)C1 [Example 305] | 0.81 | – | IC50 ([2]; second Coupled Exchange column): 2.98 µM
10 | C=CC(=O)N1CC(NC(=O)Cn2c(C)c(-c3ncccc3Cl)c3cc(Cl)ccc32)C1 [Example 306] | 1.64 | – | IC50 ([2]; second Coupled Exchange column): 9.53 µM
11 | C=C(CCO)C(=O)N1CC(NC(=O)Cn2c(C)c(C(=O)N3CCc4c(cccc4OC)C3)c3cc(Br)ccc32)C1 [Example 313] | – | – | IC50 ([2]; second Coupled Exchange column): > 250 µM
12 | C=CC(=O)N1CC(NC(=O)Cn2c(C)c(-c3cnccc3C#N)c3cc(Cl)ccc32)C1 [Example 314] | – | – | IC50 ([2]; second Coupled Exchange column): 11.7 µM
13 | C=CC(=O)N1CC(NC(=O)Cn2c(C)c(CN3CCN(c4ccc(C#N)cn4)CC3)c3cc(Br)ccc32)C1 [Example 315] | – | – | IC50 ([2]; second Coupled Exchange column): 6.22 µM
14 | C=CC(=O)N1CC(NC(=O)Cn2ccc3c(Cl)c(Cl)ccc32)C1 [Example 317] | – | – | IC50 ([2]; second Coupled Exchange column): 15.5 µM
15 | C=CC(=O)N1CC(NC(=O)Cn2c(C)c(-c3ccccc3C(C)(C)C)c3cc(Cl)ccc32)C1 [Example 318] | – | 16.2 | IC50 ([2]; second Coupled Exchange column): 98.9 µM
16 | C=CC(=O)N1CC(NC(=O)Cn2cc(CC(=O)N3CCCC4(CCCN(C)C4)C3)c3cc(Br)ccc32)C1 (stereo not shown) [Example 322] | – | – | IC50 ([2]; second Coupled Exchange column): 2.07 µM
17 | C=CC(=O)N1CC(NC(=O)Cn2c(C3CC3)c(-c3cnccc3C(C)C)c3cc(Cl)cc(C)c32)C1 [Example 324] | – | 2.42 | –
18 | C=CC(=O)N1CC(NC(=O)Cn2c(C)c(-c3cnccc3C(C)C)c3cc(Cl)cc(C)c32)C1 [Example 325] | – | 1.55 | –
19 | C=CC(=O)N1CC(NC(=O)Cn2cc(CC(=O)N3CCCCC3CN3CCCCC3)c3cc(Br)ccc32)C1 (stereo not shown) [Example 326] | – | 26.1 | –

Row | Structure (SMILES) | IC50 [2, 3] [µM] | IC50 [2, 4] [µM] | also measured
20 | C=CC(=O)N1CC(NC(=O)Cn2cc(CC(=O)N3CCC(c4ncc[nH]4)CC3)c3cc(Br)ccc32)C1 [Example 327] | – | 45.9 | –
21 | C=CC(=O)N1CC(NC(=O)Cn2cc(CC(=O)N3CCC4(CCOCC4)C3)c3cc(Br)ccc32)C1 [Example 328] | – | 31 | –
22 | C=CC(=O)N1CC(NC(=O)Cn2cc(CC(=O)N3CCOC4CC(N(C)C)CCC43)c3cc(Br)ccc32)C1 (stereo not shown) [Example 329] | – | 85.8 | –
23 | C=CC(=O)N1CC(NC(=O)Cn2cc(CC(=O)N3CCc4ccc(C(=O)O)cc4C3)c3cc(Br)ccc32)C1 [Example 330] | – | 36.6 | –
24 | C=CC(=O)N1CC(NC(=O)Cn2cc(CC(=O)NCC3Cc4ccccc4CN3C)c3cc(Br)ccc32)C1 (stereo not shown) [Example 331] | – | 22.4 | –
25 | C=CC(=O)N1CC(NC(=O)Cn2cc(CC(=O)N3CCc4cn[nH]c4C3)c3cc(Br)ccc32)C1 [Example 332] | – | 43.3 | –
26 | C=CC(=O)N1CC(NC(=O)Cn2cc(CC(=O)N3CC4CCC3C4)c3cc(Br)ccc32)C1 (stereo not shown) [Example 333] | – | 80.1 | –
27 | C=CC(=O)N1CC(NC(=O)Cn2c(C)c(-c3cnccc3C3=CCC(C)CC3)c3cc(Cl)cc(C)c32)C1 (stereo not shown) [Example 334] | – | 0.37 | –
28 | C=CC(=O)N1CC(NC(=O)Cn2c(C)c(-c3cnccc3C3=CCCCC3)c3cc(Cl)cc(C)c32)C1 [Example 335] | – | 0.8 | –
29 | C=CC(=O)N1CC(NC(=O)Cn2c(C)c(-c3ccccc3Cc3ccccc3)c3cc(Cl)cc(C)c32)C1 [Example 336] | – | 2.11 | –
30 | C=CC(=O)N1CC(N(C)C(=O)Cn2c(C)c(-c3cnccc3C3=CCCCC3)c3cc(Cl)cc(C)c32)C1 [Example 337] | – | 2.02 | –
31 | C=CC(=O)N1CC(NC(=O)Cn2c(C)c(-c3cncnc3C(C)C)c3cc(Cl)cc(C)c32)C1 [Example 338] | – | 2.87 | –
32 | C=CC(=O)N1CC(N(C)C(=O)Cn2c(C)c(-c3cncnc3C(C)C)c3cc(Cl)cc(C)c32)C1 [Example 339] | – | 2.88 | –
33 | C=CC(=O)N1CC(NC(=O)Cn2c(C)c(-c3cnccc3C3=CCCCCC3)c3cc(Cl)cc(C)c32)C1 [Example 340] | – | 0.89 | –
34 | C=CC(=O)N1CC(NC(=O)Cn2c(C)c(-c3cnccc3C3=CCOCC3)c3cc(Cl)cc(C)c32)C1 [Example 341] | – | 2.44 | –
35 | C=CC(=O)N1CC(NC(=O)Cn2c(C)c(-c3cncnc3C3CCCCC3)c3cc(Cl)cc(C)c32)C1 [Example 342] | – | 0.66 | –
36 | C=CC(=O)N1CC(NC(=O)Cn2c(C)c(-c3c(OC)cccc3OC)c3cc(Cl)cc(C)c32)C1 [Example 343] | – | 13.6 | –
37 | C=CC(=O)N1CC(NC(=O)Cn2c(C)c(-c3cccnc3N3CCC(C)CC3)c3cc(Cl)cc(C)c32)C1 [Example 344] | – | 0.88 | –
38 | C=CC(=O)N1CC(NC(=O)Cn2c(C)c(-c3cccnc3OCC(C)C)c3cc(Cl)cc(C)c32)C1 [Example 345] | – | 4.43 | –

Row | Structure (SMILES) | IC50 [2, 3] [µM] | IC50 [2, 4] [µM] | also measured
39 | C=CC(=O)N1CC(N(C)C(=O)Cn2ccc3cc(Br)ccc32)C1 [Example 346] | 2.73 | > 250 | –
40 | C=CC(=O)N1CC(NC(=O)Cn2c(C)cc3cc(Br)ccc32)C1 [Example 347] | 1.47 | > 250 | –
41 | C=CC(=O)N1CC(N(C)C(=O)Cn2c(C)cc3cc(Br)ccc32)C1 [Example 348] | 1.22 | 235 | –
42 | C=CC(=O)N1CC(NC(=O)Cn2ccc3c(C)c(Br)ccc32)C1 [Example 349] | 3.21 | > 250 | –
43 | C=CC(=O)N1CC(N(C)C(=O)Cn2ccc3c(C)c(Br)ccc32)C1 [Example 350] | 1.53 | 237 | –
44 | C=CC(=O)N1CC(N(C)C(=O)Cn2ccc3cc(Br)cc(C)c32)C1 [Example 351] | 3.32 | > 250 | –
45 | C=CC(=O)N1CC(C)(NC(=O)Cn2ccc3cc(Br)ccc32)C1 [Example 352] | 25 | > 250 | –
46 | C=CC(=O)N1CC(CO)(NC(=O)Cn2ccc3cc(Br)ccc32)C1 [Example 353] | 92.6 | 182 | –
47 | C=CC(=O)N1CC(CO)(N(C)C(=O)Cn2ccc3cc(Br)ccc32)C1 [Example 354] | > 62.5 | > 250 | –
48 | C=CC(=O)N1CC(N(C)C(=O)Cn2cc(C)c3cc(Br)ccc32)C1 [Example 355] | 1.7 | 155 | –
49 | C=CC(=O)N1CC(C)(N(C)C(=O)Cn2ccc3cc(Br)ccc32)C1 [Example 356] | > 31.3 | > 250 | –
50 | C=CC(=O)N1CC(N(C)C(=O)Cn2ccc3cc(Br)c(C)cc32)C1 [Example 357] | 6.78 | > 250 | –
51 | C=CC(=O)N1CC(N(C)C(=O)Cn2ccc3cc(Cl)ccc32)C1 [Example 358] | 3.2 | > 250 | –
52 | C=CC(=O)N1CC(n2nncc2Cn2ccc3cc(Br)ccc32)C1 [Example 359] | 7.66 | > 250 | –
53 | C=CC(=O)N1CC(NC(=O)Cn2ccc3cccc(CC#N)c32)C1 [Example 360] | > 250 | > 250 | –
54 | C=CC(=O)N1CC(NC(=O)Cn2ccc3cc(Br)ccc32)C1C (stereo not shown) [Example 361] | 3.04 | 231 | –
55 | C=CC(=O)N1C[C@@H](NC(=O)Cn2ccc3cc(Br)ccc32)[C@H]1C [Example 362] | > 250 | > 250 | –
56 | C=CC(=O)N1C[C@H](NC(=O)Cn2ccc3cc(Br)ccc32)[C@@H]1C [Example 363] | 2.22 | > 250 | –
57 | C=CC(=O)N1C[C@H](N(C)C(=O)Cn2ccc3cc(Br)ccc32)[C@@H]1C [Example 364] | 8.14 | > 250 | –
